Test results taken from patent publication US11452720B2, “Crystalline polymorphs of the free base of 2-hydroxy-6-((2-(1-isopropyl-1H-pyrazol-5-yl)pyridin-3-yl)methoxy)benzaldehyde” (Global Blood Therapeutics, Inc., priority 2014, dated 2022).
Entries after “also recorded” stand apart in the source; their conditions may differ. Counter-ions that a name gives are not always drawn. Values belong to the compound of their own block, whether it stands above or below them.

Legend:
Assay type in all cases: physicochemical
[1] = Physical stability evaluation of Free Base Form II and Material N (modulated DSC / temperature and humidity exposure, then XRPD); settings: for change in physical form by XRPD: 40° C./75% RH, 80° C./80% RH for 9 days; for change in physical form by XRPD after modulated DSC: underlying heating rate 0.02° C. min^−1
Protocol: DSC was modulated at low underlying heating rate, followed by X-ray powder diffraction. A low underlying heating rate was used of 0.02° C. min^−1. The temperature was 80° C. for form N and 90° C. for form II. Exposure was essentially isothermal, covering a temperature range with sensitivity to detect changes in physical form. The resultant materials were examined by X-ray powder diffraction.
Forms II and N were exposed to 40° C./75% relative humidity (RH), 80° C., 80° C./80% RH for 9 days followed by X-ray powder diffraction.

[2] = Extended solvent mediated maturation of form II / form N mixtures in hexane; settings: temperatures of 20° C. and lower
Protocol: Extended solvent mediated maturation studies were conducted with 1:1 w/w mixtures of polymorphic form II and form N. Hexane provided a good medium for solvent assessments. The temperatures used include −20° C., −10° C., 0° C., 10° C., 20° C., 30° C., 40° C. and 50° C. […] Solids derived from maturation at −20° C., −10° C., 0° C., 10° C., 20° C. were analyzed by X-ray powder diffraction.

[3] = Estimated transition temperature and relative thermodynamic stability of free base forms
Description: Phase transitions of solids can be thermodynamically reversible or irreversible. Crystalline forms which transform reversibly at a specific transition temperature (T) are called enantiotropic polymorphs. If the crystalline forms are not interconvertable under these conditions, the system is monotropic (one thermodynamically stable form). Several rules have been developed to predict the relative thermodynamic stability of polymorphs and whether the relationship between the polymorphs is enantiotropic or monotropic. The heat of fusion rule is applied within this study. The heat of fusion rule states that if the higher melting form has the lower heat of fusion then the two forms are enantiotropic, otherwise they are monotropic.
The estimated transition temperature between two enantiotropically related forms can be calculated from their melt onsets and heats of fusion based on the equation shown below.

[4] = Ambient storage of Form II, reanalysis by XRPD; settings: after 7 days
Description: The form is known to be thermodynamically metastable, relative to Material N, at this condition; however, the kinetics of polymorph conversion may be slow at ambient conditions in the solid state.

[5] = Chemical and physical stability evaluation of Free Base Form I (UPLC, XRPD)
Protocol: Three conditions were used; open to 25° C./60% RH, open to 40° C./75% RH, and closed to 60° C. Physical stability was evaluated by XRPD. Chemical stability was determined through UPLC and ^1H NMR, when applicable. Materials were tested after 1, 7, and 14 days of exposure.

[6] = Dynamic vapor sorption (DVS) with post-DVS XRPD; settings: for DVS weight loss from 95 to 5% RH: desorption 95 to 5% RH; for post-DVS XRPD result: material recovered from the DVS experiment; for DVS weight gain from 5 to 95% RH: sorption 5 to 95% RH
Protocol: Dynamic vapor sorption (DVS) data were collected on a VTI SGA-100 Vapor Sorption Analyzer. NaCl and PVP were used as calibration standards. Samples were not dried prior to analysis. Adsorption and desorption data were collected over a range from 5 to 95% RH at 10% RH increments under a nitrogen purge. The equilibrium criterion used for analysis was less than 0.0100% weight change in 5 minutes with a maximum equilibration time of 3 hours. Data were not corrected for the initial moisture content of the samples.

[7] = Disproportionation of the sulfate salt when precipitated with water; settings: from solvents such as dimethyl sulfoxide and methanol when precipitated with water
Description: This invention arises in part out the discovery that an HCl salt of Compound 1 disproportionates or loses HCl, and a disproportionation of the HCl salt of Compound 1 in water generates the free base and disproportionation was facile upon exposure to elevated humidity, with wet milling, and in direct contact with water (e.g. slurry). The sulfate salt of Compound 1 also disproportionates from certain solvents such as dimethyl sulfoxide and methanol when precipitated with water. The volatilization of HCl was evident within hours of exposure to drying conditions. For example, partial conversion to the free base was observed within 12 hours at 30° C. Accordingly, the free base of Compound 1 provides a stabler chemical entity compared to the corresponding HCl or sulfate and such other salt.

[8] = Physical stability of the HCl salt with grinding (XRPD); settings: 30 min
Protocol: Selected material was milled utilizing a Reitch Mill. The material was loaded into an agate lined milling vessel followed by the addition of an agate ball. The vessel was then placed on to the mill and milled for approximately 30 minutes at frequency of […]. The milling was stopped approximately every 10 minutes and material scraped from the wall before further milling.

[9] = Physical stability of the HCl salt exposed to water (disproportionation, XRPD)
Protocol: Solutions were prepared by adding enough solids to a given solvent so that excess solids were present. The mixture was then agitated in a sealed vial at either ambient or an elevated temperature. After a given amount of time, the solids were isolated for analysis.
(§1) The HCl salt (termed “HCl Form I”) was subjected to various stress conditions and monitored by XRPD to evaluate physical stability. […] Disproportionation is further evident with wet milling or in direct contact with water (e.g. slurry) as shown by the presence of Free Base Forms I or II, identified by XRPD. […] (after 12 hrs), 40° C. (after 6 hrs), and at 40° C./48 mmHg (after 6 hrs). • Free Base Material C becomes evident at more extreme conditions involving elevated temperatures. Heating HCl Form I up to 125° C. induces the loss of acidic volatiles (judged visually by use of pH paper held above sample). […] Exposing the HCl salt to 60° C. under vacuum for 6 days provides the same result. The nature of Material C is not established

[10] = Physical stability of the HCl salt exposed to elevated temperature and/or vacuum (XRPD)
Protocol: Selected materials were stressed at elevated related humidity and/or temperature. Relative humidity jars (saturated salt solutions used to generate desired relative humidity) were utilized to store selected samples. The following relative humidity jars were utilized during evaluation: 75% RH (NaCl) and 60% (NaBr), to investigate the effects of humidity. Temperatures utilized were ambient, 30, 40, 60, and 100-125° C.
Selected materials were stressed under reduced pressure for a set time period. Initial stressing was conducted with the in-house vacuum system with absolute pressure readings <500 mTorr, typically 30 to 50 mTorr (0.030 to 0.05 mm Hg). Additional vacuum stressing was conducted at 48 mmHg utilizing a portable lab vacuum and bleed to simulate conditions similar to those expected during process.
as §1

SMILES: CC(C)n1nccc1-c1ncccc1COc1cccc(O)c1C=O [Material N, 2-hydroxy-6-((2-(1-isopropyl-1H-pyrazol-5-yl)pyridin-3-yl)methoxy)benzaldehyde]
change in physical form by XRPD ([1]; 80° C.): No changes in physical form
change in physical form by XRPD after modulated DSC ([1]; 80° C.): No changes in physical form
relative thermodynamic stability [2]: thermodynamically more stable than form II
Relative Stability ([3]; Below 6° C.): N > II
Relative Stability ([3]; Between 6° C. and T^N-II): N > II > I

SMILES: CC(C)n1nccc1-c1ncccc1COc1cccc(O)c1C=O [Form II, 2-hydroxy-6-((2-(1-isopropyl-1H-pyrazol-5-yl)pyridin-3-yl)methoxy)benzaldehyde]
change in physical form by XRPD ([1]; 80° C.): No changes in physical form
change in physical form by XRPD after modulated DSC ([1]; 90° C.): No changes in physical form
XRPD after storage [4]: remained unchanged; also recorded: Free Base Form II
Relative Stability ([3]; Above T^N-II): (II > I)
Relative Stability ([3]; Below 6° C.): N > II
Relative Stability ([3]; Between 6° C. and T^N-II): N > II > I

SMILES: CC(C)n1nccc1-c1ncccc1COc1cccc(O)c1C=O [Form I, 2-hydroxy-6-((2-(1-isopropyl-1H-pyrazol-5-yl)pyridin-3-yl)methoxy)benzaldehyde]
chemical stability: level of impurities by UPLC ([5]; open 25° C./60% RH, open 40° C./75% RH, closed 60° C., after 14 days): did not rise significantly
physical stability by XRPD ([5]; open to 25° C./60% RH, 1, 7 and 14 days): remained unchanged
physical stability by XRPD ([5]; open to 40° C./75% RH and closed to 60° C., after 7 days): Free Base Form II was observed
hygroscopicity by DVS isotherm [6]: not hygroscopic
weight gain and loss through sorption/desorption ([6]; DVS): 0.2%
DVS weight loss from 95 to 5% RH [6]: 0.22% loss from 95 to 5% RH
DVS weight loss upon equilibration at 5% RH ([6]; equilibration at 5% RH): 0.02% loss upon equilibration at 5% RH
post-DVS XRPD result [6]: predominately Free Base Form I with a few additional peaks; also recorded: Free Base Form I + other Free Base Material
DVS weight gain from 5 to 95% RH [6]: 0.22% gain from 5 to 95% RH

More lines, main results first:

disproportionation of the salt [7]: disproportionates
SMILES: CC(C)n1nccc1-c1ncccc1COc1cccc(O)c1C=O [sulfate salt of Compound 1, 2-hydroxy-6-((2-(1-isopropyl-1H-pyrazol-5-yl)pyridin-3-yl)methoxy)benzaldehyde]

XRPD Result ([8]; dry): HCl I
XRPD Result ([8]; wet): HCl I + FB I
XRPD Result ([9]; vacuum dried, about 1 day): FB I
XRPD Result ([9]; water slurry, about 5 min): Free base (FB) I
XRPD Result ([9]; water slurry, about 5 min, listed as HCl salt): Free Base Form I
XRPD Result ([9]; water slurry, about 6 days): FB I + FB II
time after which conversion to Free Base Form I was observed by XRPD ([10]; 30° C.): 12 h
XRPD Result ([10]; 30° C., 6 hrs): HCl I
XRPD Result ([10]; 30° C., 12 hrs): HCl I + FB I
XRPD Result ([10]; 30° C., 24 hrs): HCl I + FB I
time within which partial conversion to the free base was observed ([10]; 30° C., drying conditions): ≤ 12 h
time after which conversion to Free Base Form I was observed by XRPD ([10]; 40° C.): 6 h
XRPD Result ([10]; 40° C. vacuum, 6 hrs): HCl I + FB I
XRPD Result ([10]; 40° C. vacuum, 12 hrs): HCl I + FB I
XRPD Result ([10]; 40° C. vacuum, 24 hrs): HCl I + FB I
XRPD Result ([10]; 40° C., 6 hrs): HCl I + FB I
XRPD Result ([10]; 40° C., 12 hrs): HCl I + FB I
XRPD Result ([10]; 40° C., 24 hrs): HCl I + FB I
time after which conversion to Free Base Form I was observed by XRPD ([10]; 40° C./48 mmHg): 6 h
XRPD Result ([10]; 60° C. vacuum, 6 days): HCl I + FB I +
XRPD Result ([10]; 60° C. vacuum, 6 days, listed as HCl salt): same result
XRPD Result ([10]; 60° C., 6 days): HCl I + FB I
XRPD Result ([10]; 100 to 125° C., 20 min): HCl I + FB I +
XRPD Result ([10]; RT vacuum, 6 days): HCl I + FB I
DVS weight loss from 95 to 5% RH [6]: 0.09% loss from 95 to 5% RH
DVS weight gain upon equilibration at 5% RH ([6]; equilibration at 5% RH): 0.03% gain upon equilibration at 5% RH
post-DVS XRPD result [6]: HCl I + Free Base Form I
post-DVS XRPD result ([6]; listed as HCl salt): disproportionation occurred
DVS weight gain from 5 to 95% RH [6]: 0.10% gain from 5 to 95% RH
SMILES: CC(C)n1nccc1-c1ncccc1COc1cccc(O)c1C=O [HCl salt of Compound 1, 2-hydroxy-6-((2-(1-isopropyl-1H-pyrazol-5-yl)pyridin-3-yl)methoxy)benzaldehyde]
disproportionation on contact with water ([9]; contact with water): Immediate disproportionation occurs; also recorded: disproportionate immediately
XRPD Result ([10]; 100 to 125° C., 20 min, listed as HCl Form I): mixture of HCl Form I, Free Base Form I, and Free Base Material C
